In paper PMC6218249 (Bioorganic & medicinal chemistry letters, 2018):
Converted amounts (≈) assume the structure as drawn.

Columns and labels:
[1] = In vivo pharmacokinetics in C57BL/6 mice; conditions: C57BL/6, mouse, plasma, other: intravenous and oral, 3 mg/kg
physchem = conditions: pH 7.4

SMILES | half-life [1] | solubility (physchem) | PAMPA (x10^−6 cm/s) (PAMPA permeability)
CC(c1ccc(-c2cnc3c(-c4ccc(S(N)(=O)=O)c5ccccc45)cnn3c2)cc1)N1CCCC1 (centres unmarked) [Compound 23] | 3 to 4 h | 14 µM (≈ 6.97 µg/mL) | 1116.0 x10^−6 cm/s
NS(=O)(=O)c1ccc(-c2cnn3cc(-c4ccc(OCCN5CCCCC5)nc4)cnc23)c2ccccc12 [Compound 14] | – | – | 364.7 x10^−6 cm/s
CC(C)(N)c1ccc(-c2cnc3c(-c4ccc(S(N)(=O)=O)c5ccccc45)cnn3c2)cc1 [Compound 20] | – | – | 9.4 x10^−6 cm/s
NS(=O)(=O)c1ccc(-c2cnn3cc(-c4ccc(OCCN5CCCC5)cc4)cnc23)c2ccccc12 [Compound 18] | – | – | 317 x10^−6 cm/s
NS(=O)(=O)c1ccc(-c2cnn3cc(-c4ccc(C5CCNCC5)cc4)cnc23)c2ccccc12 [Compound 15] | – | – | 78.6 x10^−6 cm/s
CC(C)(CN1CCCCC1)Oc1ccc(-c2cnc3c(-c4ccc(S(N)(=O)=O)c5ccccc45)cnn3c2)cc1 [Compound 17] | – | – | 1920.5 x10^−6 cm/s
NS(=O)(=O)c1ccc(-c2cnn3cc(-c4ccc(CN5CCCC5)cc4)cnc23)c2ccccc12 [Compound 22] | – | – | 467 x10^−6 cm/s
NS(=O)(=O)c1ccc(-c2cnn3cc(-c4ccc(N5CCNCC5)nc4)cnc23)c2ccccc12 [Compound 12] | – | – | 8.3 x10^−6 cm/s
CN(C)CCOc1ccc(-c2cnc3c(-c4ccc(S(N)(=O)=O)c5ccccc45)cnn3c2)cn1 [Compound 13] | – | – | 8.8 x10^−6 cm/s
